The text below walks through data of ChEMBL document CHEMBL1201862, “PubChem BioAssay data set” (2004).

Active and inactive are the calls of the source.

The target in assay [1] is Genome polyprotein (Hepatitis C virus, UniProt Q2Q167). Kind of assay: disruption of hepatitis C core self-association – biochemical, TR-FRET, dose response (AID 2159).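 Further: blocks dimerization of HCV core protein measured by TR-FRET between tagged core106 pairs.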 The arrangement: species or system Hepacivirus hominis.
Chain of Genome polyprotein (Q2Q167 whole entry): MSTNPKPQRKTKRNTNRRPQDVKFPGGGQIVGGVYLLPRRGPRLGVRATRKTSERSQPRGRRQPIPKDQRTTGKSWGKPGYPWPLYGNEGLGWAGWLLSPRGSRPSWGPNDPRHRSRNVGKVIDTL
The target of assay [2] is Tyrosine-protein phosphatase non-receptor type 7 (Homo sapiens, UniProt P35236). Kind of assay: HePTP tyrosine phosphatase activity blockers – biochemical, absorbance, leukemia target, primary screen (AID 521). The format is functional.
Chain of Tyrosine-protein phosphatase non-receptor type 7 (P35236 whole entry): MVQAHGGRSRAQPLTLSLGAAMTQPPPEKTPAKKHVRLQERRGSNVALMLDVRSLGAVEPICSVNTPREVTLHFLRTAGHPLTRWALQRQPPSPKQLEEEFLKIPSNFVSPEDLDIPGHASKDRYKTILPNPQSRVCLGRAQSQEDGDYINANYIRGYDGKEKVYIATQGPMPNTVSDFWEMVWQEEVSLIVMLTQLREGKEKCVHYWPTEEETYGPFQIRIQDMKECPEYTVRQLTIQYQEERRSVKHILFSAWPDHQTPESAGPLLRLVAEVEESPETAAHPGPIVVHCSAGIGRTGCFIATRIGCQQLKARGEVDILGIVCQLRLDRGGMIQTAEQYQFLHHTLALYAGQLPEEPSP
The target of assay [3] is T1, Estrogen receptor (Homo sapiens, UniProt P03372).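 Further: potency for inhibiting coactivator peptide recruitment to the receptor.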
T1 sequence (P03372 whole entry): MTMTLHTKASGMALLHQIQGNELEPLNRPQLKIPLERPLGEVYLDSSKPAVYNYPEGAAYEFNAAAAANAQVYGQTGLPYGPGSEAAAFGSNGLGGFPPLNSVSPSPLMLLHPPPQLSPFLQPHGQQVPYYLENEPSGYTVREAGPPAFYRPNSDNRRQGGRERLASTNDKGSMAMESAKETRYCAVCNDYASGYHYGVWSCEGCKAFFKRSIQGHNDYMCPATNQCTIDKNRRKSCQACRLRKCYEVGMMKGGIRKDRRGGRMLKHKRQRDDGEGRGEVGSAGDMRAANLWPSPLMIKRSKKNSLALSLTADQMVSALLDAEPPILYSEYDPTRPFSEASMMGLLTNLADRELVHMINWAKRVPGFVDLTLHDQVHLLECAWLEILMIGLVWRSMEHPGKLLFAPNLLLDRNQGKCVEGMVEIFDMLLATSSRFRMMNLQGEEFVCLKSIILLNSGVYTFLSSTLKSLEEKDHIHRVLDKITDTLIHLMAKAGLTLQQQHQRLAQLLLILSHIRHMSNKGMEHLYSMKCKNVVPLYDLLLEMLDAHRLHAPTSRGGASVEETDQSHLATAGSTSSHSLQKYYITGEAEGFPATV

For assay [4], the target named is NS3 (Hepatitis C virus, UniProt A3EZJ3). Kind of assay: NS3h DNA-binding inhibition IC50 – biochemical, fluorescence polarization, ChemBridge library, dose response (AID 743264). (In general: Fluorescence polarisation rises when a labelled molecule tumbles more slowly, as on binding a larger partner.)
Assay [5] deals with T2, RNA-binding protein pos-1 (Caenorhabditis elegans, UniProt G5EF15).
T2 sequence (G5EF15 whole entry): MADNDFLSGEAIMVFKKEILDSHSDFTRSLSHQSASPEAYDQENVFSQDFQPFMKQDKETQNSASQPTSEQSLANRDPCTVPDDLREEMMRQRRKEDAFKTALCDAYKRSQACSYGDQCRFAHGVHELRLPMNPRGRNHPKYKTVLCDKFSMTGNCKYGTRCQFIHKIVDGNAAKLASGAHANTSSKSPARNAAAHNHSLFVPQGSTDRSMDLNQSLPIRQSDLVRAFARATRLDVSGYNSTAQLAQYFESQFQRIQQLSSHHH
Kind of assay: disruptors of C. elegans POS-1 RNA interaction – biochemical, fluorescence polarization, dose response (AID 1964).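 Further: purified POS-1 fused to maltose binding protein made in E. coli; potency of compounds blocking POS-1 binding to fluorescent RNA.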

Assay [6] has as its target T3, Zinc finger protein mex-5 (Caenorhabditis elegans, UniProt Q9XUB2).
T3 sequence (Q9XUB2 whole entry): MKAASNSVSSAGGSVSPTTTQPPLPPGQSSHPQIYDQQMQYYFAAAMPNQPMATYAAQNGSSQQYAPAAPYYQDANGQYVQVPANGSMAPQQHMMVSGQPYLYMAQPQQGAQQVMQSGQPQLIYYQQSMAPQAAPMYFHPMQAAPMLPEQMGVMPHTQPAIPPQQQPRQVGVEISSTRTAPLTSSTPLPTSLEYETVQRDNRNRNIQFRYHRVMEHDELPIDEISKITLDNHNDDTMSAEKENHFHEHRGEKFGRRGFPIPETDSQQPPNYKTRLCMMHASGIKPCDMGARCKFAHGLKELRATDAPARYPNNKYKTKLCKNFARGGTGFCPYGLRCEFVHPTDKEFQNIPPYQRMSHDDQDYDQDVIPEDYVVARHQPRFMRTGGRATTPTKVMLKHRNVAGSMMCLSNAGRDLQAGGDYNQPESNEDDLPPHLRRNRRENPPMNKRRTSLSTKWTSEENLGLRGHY
Kind of assay: potency of MEX-5 RNA-binding blockers – biochemical, C. elegans, fluorescence polarization, dose response (AID 1960).

Assay [7] addresses Diphosphomevalonate decarboxylase (Streptococcus pneumoniae serotype 2 (strain D39 / NCTC 7466), UniProt Q9FD53). Kind of assay: diphosphomevalonate decarboxylase inhibitor confirmation – biochemical, cuvette format, coupled NADH fluorescence (AID 1028). The class given is functional.
Assay [8] can be described thus: cells. The format is functional.
Assay [9] is described as follows: Vero E6 cell cytotoxicity, dose response, cytotoxicity control for non-replicating M. tuberculosis project, secondary assay (AID 492998). The note with it: Vero C1008. The class given is functional, VeroE6.
Assay [10] in a line: HepG2 cell cytotoxicity, dose response, cytotoxicity control for non-replicating M. tuberculosis project (AID 489018). The format is functional. The note with it: Mycobacterium tuberculosis.
A short description of assay [11]: Luminescent dose response cell-based high throughput screening assay for inhibitors of the Janus kinase 2 mutant JAK2V617F. [Related pubchem assays: 1446 (Primary screen.), 1521 (Confirmation assay.), 1486 (Counter screen.)]. The format is functional. For orientation: Counterscreens check selectivity or assay interference.
Assay [12] addresses Paired box protein Pax-8 (Homo sapiens, UniProt Q06710). Briefly: PAX8 transcriptional activity inhibition in RMG-I – RMG-I cells, luciferase, cherry-pick, dose response (AID 687027).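 Further: luciferase reporter driven by Pax8 target thyroperoxidase promoter measured by SteadyGlo luminescence.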 The format is functional, cell-based.
Assay [13] can be described thus: THP-1 cell cytotoxicity, dose response, cytotoxicity control for non-replicating M. tuberculosis project (AID 489025). The class given is functional.
Assay [14] relates to Streptococcus. Briefly: GAS UMAA2166 growth inhibition – luminescence, BacTiterGlo, counter-screen for streptokinase expression inhibitor project, dose response (AID 1915).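 Further: potency for reduction of bacterial viability or growth.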 The class given is functional, organism-based.
Assay [15] addresses Voltage-gated inwardly rectifying potassium channel KCNH2 (Homo sapiens, UniProt Q12809). Kind of assay: concentration-dependent hERG rescue from blockers – cell-based, thallium flux, dose response (AID 2121). The class given is ADME. (hERG is a cardiac potassium channel; its block is linked to QT prolongation.)
Assay [16] relates to Streptococcus sp. 'group A'. Kind of assay: Streptococcus pyogenes SK(-)GAS viability under kanamycin – luminescence, BacTiterGlo, confirmation, counter-screen for streptokinase expression inhibitor project, dose response (AID 1900). The format is functional, organism-based.
Assay [17] has as its target T4, Ion channel NompC (Danio rerio, UniProt Q7T1G6). Kind of assay: Late stage counterscreen for the probe development effort to identify selective agonists of the Transient Receptor Potential Channels 3 (TRPML3): fluorescence-based cell-based dose response assay for TRPN1 agonists. The format is functional.
The target of assay [18] is T5, Mucolipin-3 (Homo sapiens, UniProt Q8TDD5).
T5 sequence (Q8TDD5 whole entry): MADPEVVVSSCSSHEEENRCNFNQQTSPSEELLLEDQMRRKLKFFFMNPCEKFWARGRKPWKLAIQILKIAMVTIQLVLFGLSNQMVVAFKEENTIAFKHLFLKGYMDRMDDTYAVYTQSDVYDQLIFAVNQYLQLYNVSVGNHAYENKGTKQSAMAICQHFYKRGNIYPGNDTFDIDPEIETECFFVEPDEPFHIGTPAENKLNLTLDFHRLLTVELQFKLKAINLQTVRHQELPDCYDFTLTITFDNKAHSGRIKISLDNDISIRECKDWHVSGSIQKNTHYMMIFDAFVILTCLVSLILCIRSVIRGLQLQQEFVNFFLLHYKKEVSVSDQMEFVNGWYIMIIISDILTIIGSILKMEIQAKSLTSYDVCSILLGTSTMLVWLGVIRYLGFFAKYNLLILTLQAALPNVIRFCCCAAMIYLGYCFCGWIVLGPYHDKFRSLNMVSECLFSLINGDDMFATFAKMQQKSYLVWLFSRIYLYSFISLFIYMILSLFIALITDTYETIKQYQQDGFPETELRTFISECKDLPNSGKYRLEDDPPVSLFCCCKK
Briefly: human mucolipin-3 activators, concentration-response – cell-based, calcium fluorescence, dose response (AID 2510). The format is functional.

Assay [19] deals with T5, Mucolipin-3. Briefly: Dose response cell-based high-throughput screening assay for agonists of the transient receptor potential channel ML3 (TRPML3). [Related pubchem assays: 1526, 1424, 1448 ]. The format is functional.
Assay [20] concerns the target T4, Ion channel NompC. Briefly: Fluorescence counterscreen assay for TRPML3 agonists: dose response cell-based high-throughput screening assay to identify agonists of the transient receptor potential channel N1 (TRPN1). [Related pubchem assays: 1526, 1424, 1448 ]. The class given is functional.
Assay [21] concerns Danio rerio. Briefly: In Vivo Angiogenesis Dose-Response Confirmation. [Related pubchem assays: 732 (Assay preceding this confirmatory assay.)]. The class given is functional, organism-based.
The target of assay [22] is Luciferin 4-monooxygenase (Photinus pyralis, UniProt P08659). Briefly: inhibition of purified Photinus pyralis luciferase – biochemical, luminescence, dose response (AID 1891).
Chain of Luciferin 4-monooxygenase (P08659 whole entry): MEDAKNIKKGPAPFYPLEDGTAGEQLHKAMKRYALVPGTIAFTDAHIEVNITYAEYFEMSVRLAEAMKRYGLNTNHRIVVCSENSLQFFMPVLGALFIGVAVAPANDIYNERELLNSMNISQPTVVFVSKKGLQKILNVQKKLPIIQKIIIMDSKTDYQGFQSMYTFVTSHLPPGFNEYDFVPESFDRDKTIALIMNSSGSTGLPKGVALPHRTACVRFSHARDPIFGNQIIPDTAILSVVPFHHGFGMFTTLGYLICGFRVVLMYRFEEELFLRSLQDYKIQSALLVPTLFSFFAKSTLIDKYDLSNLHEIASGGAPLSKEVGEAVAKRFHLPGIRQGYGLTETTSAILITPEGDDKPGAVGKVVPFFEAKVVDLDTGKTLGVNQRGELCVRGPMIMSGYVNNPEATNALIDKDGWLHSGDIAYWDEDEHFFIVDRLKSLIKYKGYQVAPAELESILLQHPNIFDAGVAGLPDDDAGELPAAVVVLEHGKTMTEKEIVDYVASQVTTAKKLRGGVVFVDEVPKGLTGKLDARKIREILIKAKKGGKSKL
Assay [23] can be described thus: Luminescence Cell-Based Dose Confirmation HTS to Identify Inhibitors of Platelet Dense Granule Release. [Related pubchem assays: 1663 (Primary HTS), 1678 (Summary of Project)]. The format is functional.
A short description of assay [24]: Fluorescence Cell-Based Dose Response to Identify Inhibitors of Thrombin Receptor-Activating Peptide SFLLRN-Mediated P-Selectin Induction on Platelets. [Related pubchem assays: 1663 (Primary HTS), 1889 (retest at dose ), 1891 (counterscreen), 1678 (Project Summary)]. The class given is functional.
For assay [25], the target named is Mitogen-activated protein kinase 10 (Homo sapiens, UniProt P53779). Briefly: Dose response biochemical screening assay for inhibitors of c-Jun N-Terminal Kinase 3 (JNK3). [Related pubchem assays: 746 ].
Chain of Mitogen-activated protein kinase 10 (P53779 whole entry): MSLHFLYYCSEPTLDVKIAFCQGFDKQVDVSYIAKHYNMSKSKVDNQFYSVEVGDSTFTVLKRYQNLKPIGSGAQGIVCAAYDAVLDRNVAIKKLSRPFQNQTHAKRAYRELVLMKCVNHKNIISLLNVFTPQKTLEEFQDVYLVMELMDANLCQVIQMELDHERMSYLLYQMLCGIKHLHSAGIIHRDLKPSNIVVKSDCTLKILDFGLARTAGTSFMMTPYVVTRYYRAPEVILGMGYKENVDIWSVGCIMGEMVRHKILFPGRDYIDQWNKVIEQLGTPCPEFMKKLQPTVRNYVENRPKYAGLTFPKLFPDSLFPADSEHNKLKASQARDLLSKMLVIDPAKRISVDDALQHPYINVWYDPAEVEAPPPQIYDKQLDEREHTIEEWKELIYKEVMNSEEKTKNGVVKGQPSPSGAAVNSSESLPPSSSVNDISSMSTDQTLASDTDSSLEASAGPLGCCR
Assay [26] deals with Peroxisome proliferator-activated receptor gamma/Nuclear receptor coactivator 1 (Homo sapiens, UniProt P37231). Kind of assay: TR-FRET dose response biochemical High Throughput Screening assay for agonists of the steroid receptor coactivator 1 (SRC-1) recruitment by the peroxisome proliferator-activated receptor gamma (PPAR gamma): non-selective agonists. [Related pubchem assays (depositor defined):AID1300, AID1808, AID504735, AID631]. The format is protein assay.
Chain of Peroxisome proliferator-activated receptor gamma/Nuclear receptor coactivator 1 (P37231 whole entry): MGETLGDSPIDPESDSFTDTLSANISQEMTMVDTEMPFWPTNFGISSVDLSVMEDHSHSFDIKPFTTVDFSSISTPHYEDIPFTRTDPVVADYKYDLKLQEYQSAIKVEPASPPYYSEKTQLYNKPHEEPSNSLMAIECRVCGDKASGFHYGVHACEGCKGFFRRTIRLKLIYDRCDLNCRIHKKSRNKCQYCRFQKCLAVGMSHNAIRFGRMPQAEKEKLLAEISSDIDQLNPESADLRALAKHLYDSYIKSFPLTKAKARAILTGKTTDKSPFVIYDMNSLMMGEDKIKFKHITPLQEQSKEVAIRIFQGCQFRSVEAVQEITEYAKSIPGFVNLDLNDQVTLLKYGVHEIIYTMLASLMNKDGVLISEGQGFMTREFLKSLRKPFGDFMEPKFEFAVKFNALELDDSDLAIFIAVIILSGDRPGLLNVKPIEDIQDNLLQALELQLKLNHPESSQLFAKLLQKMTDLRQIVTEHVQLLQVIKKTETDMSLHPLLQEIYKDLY
Chain of Peroxisome proliferator-activated receptor gamma/Nuclear receptor coactivator 1 (Q15788 whole entry, further chain): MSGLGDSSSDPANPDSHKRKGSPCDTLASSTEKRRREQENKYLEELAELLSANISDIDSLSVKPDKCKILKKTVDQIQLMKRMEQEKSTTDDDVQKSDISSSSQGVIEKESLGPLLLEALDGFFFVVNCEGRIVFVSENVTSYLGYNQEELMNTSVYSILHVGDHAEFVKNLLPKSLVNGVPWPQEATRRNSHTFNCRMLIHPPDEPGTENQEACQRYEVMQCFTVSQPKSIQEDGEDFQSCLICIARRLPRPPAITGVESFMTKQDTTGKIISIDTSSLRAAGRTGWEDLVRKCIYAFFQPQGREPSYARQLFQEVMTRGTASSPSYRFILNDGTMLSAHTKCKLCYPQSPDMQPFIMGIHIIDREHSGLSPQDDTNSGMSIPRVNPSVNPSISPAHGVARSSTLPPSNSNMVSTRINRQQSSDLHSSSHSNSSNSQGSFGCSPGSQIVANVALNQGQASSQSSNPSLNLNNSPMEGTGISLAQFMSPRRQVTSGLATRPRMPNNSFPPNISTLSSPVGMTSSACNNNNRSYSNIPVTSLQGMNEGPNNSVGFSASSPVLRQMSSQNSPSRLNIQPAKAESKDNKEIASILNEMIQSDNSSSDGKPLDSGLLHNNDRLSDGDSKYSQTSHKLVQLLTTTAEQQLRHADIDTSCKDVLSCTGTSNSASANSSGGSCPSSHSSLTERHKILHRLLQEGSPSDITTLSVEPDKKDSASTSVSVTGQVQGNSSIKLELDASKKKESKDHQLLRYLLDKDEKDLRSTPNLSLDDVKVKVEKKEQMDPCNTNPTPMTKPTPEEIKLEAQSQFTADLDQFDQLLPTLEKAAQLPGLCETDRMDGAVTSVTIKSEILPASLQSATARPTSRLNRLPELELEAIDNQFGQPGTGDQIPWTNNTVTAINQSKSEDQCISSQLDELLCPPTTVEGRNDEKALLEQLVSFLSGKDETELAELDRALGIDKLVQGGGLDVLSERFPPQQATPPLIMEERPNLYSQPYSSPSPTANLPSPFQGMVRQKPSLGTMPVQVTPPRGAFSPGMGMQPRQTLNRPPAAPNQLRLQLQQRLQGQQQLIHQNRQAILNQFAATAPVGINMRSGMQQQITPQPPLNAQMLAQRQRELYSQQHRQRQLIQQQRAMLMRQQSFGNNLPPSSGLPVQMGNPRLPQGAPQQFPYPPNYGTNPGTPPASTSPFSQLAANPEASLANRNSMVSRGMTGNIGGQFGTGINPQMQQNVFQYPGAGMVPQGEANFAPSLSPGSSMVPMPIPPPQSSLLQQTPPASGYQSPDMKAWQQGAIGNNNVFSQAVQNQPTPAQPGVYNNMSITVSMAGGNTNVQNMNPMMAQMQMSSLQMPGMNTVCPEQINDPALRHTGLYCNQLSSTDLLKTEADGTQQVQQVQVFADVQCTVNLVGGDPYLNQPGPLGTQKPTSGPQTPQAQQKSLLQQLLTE

The target of assay [27] is Peroxisome proliferator-activated receptor gamma/Nuclear receptor coactivator 2 (Homo sapiens, UniProt P37231). Briefly: TR-FRET dose response biochemical High Throughput Screening assay for agonists of the steroid receptor coactivator 2 (SRC-2) recruitment by the peroxisome proliferator-activated receptor gamma (PPAR gamma): non-selective agonists. [Related pubchem assays: 1297, 1032 ]. The format is functional.

Assay [28] addresses Peroxisome proliferator-activated receptor gamma/Nuclear receptor coactivator 3 (Homo sapiens, UniProt P37231). Briefly: TR-FRET dose response biochemical High Throughput Screening assay for agonists of the steroid receptor coactivator 3 (SRC-3) recruitment by the peroxisome proliferator-activated receptor gamma (PPAR gamma): non-selective agonists. [Related pubchem assays: 1301 (Confirmation screen.), 1048 (Primary screen.)]. The class given is functional.

T4 sequence (Q7T1G6 whole entry): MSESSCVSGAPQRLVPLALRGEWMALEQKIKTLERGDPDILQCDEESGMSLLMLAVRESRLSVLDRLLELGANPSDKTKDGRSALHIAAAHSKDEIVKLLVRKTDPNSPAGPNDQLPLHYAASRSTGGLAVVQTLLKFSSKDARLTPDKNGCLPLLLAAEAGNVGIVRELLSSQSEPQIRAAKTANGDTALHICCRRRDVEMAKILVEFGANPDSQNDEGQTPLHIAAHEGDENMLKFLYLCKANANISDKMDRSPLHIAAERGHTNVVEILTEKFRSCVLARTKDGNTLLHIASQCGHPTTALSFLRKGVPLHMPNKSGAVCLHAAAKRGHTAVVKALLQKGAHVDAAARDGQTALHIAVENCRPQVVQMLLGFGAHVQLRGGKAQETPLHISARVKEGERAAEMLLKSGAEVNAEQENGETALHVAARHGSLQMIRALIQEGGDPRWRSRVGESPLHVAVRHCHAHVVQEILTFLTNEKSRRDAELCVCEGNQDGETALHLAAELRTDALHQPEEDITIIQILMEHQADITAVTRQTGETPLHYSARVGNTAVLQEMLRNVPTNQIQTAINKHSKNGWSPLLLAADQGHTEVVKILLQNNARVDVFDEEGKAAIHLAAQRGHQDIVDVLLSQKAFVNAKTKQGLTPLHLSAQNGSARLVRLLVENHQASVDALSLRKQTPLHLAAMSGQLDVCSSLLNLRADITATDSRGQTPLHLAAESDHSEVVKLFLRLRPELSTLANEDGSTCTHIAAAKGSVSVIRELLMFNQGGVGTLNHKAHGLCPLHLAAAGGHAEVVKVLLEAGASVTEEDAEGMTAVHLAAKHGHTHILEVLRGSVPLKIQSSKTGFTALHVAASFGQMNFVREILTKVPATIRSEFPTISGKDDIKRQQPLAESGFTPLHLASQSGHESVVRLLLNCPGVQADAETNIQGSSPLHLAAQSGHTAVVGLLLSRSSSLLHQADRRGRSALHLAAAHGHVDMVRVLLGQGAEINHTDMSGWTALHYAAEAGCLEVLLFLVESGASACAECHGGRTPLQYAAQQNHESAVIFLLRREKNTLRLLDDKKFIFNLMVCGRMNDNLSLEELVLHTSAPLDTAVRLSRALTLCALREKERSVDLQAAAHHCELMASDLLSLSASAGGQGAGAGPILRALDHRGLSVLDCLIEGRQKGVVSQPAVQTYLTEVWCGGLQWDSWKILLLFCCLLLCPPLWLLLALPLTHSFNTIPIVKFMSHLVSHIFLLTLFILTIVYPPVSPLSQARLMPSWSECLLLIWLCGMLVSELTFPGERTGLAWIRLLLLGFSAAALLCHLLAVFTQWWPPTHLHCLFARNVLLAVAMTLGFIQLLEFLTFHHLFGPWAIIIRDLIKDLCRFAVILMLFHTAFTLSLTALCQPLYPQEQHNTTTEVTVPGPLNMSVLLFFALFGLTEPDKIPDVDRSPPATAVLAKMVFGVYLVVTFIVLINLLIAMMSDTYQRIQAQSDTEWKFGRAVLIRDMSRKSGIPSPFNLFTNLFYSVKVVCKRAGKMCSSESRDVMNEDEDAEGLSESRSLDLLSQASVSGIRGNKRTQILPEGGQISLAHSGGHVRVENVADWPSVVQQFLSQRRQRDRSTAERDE

The term IC50 denotes the midpoint of a concentration-inhibition curve. In the case of `Cc1ccc(-c2nc(=S)c3c(n2Cc2ccco2)CC(C)(C)OC3)cc1`, the IC50 in [1] is recorded as > 49.8 µM (not active).
A word on the EC50: it is the midpoint of the concentration-response curve. Consider `Cc1cc(C(=O)O)ccc1-n1c(C)ccc1C`, for which the IC50 is 0.76 µM (active) in [2], 7.53 µM (active) in assay [3] and 6.25 µM (inactive) in assay [4]. In addition, the EC50 in assay [5] was 5.94 µM (active); in assay [6] it was 8.59 µM (active).
Take `O=C(c1ccc(-n2sc3ccccc3c2=O)cc1)N1CCCC1`: the IC50 in assay [7] is 8.66 µM (active).
A word on the CC50: it is the concentration at which the toxic effect on the cells reaches its halfway point. In general, AC50 refers to the concentration at which the activity in the assay is half-maximal. Consider `CCOc1ccc(C(=O)C(CN2CCOCC2)c2ccccc2)cc1` (stereo not drawn), for which the IC50 in assay [8] is 10.3 µM (active); in [11], 0.73 µM (active). Also, the figures for the cytotoxic concentration (CC50) in assay [9], in [10] and in assay [13] were 8.04 µM (active), 16.1 µM (active) and 5.48 µM (active), respectively. For the same compound, in assay [12], the AC50 is 1.96 µM (active).
Regarding `CCOc1ccc2nc(N3C(=O)/C(=C/c4ccc(Cl)cc4)NC3=S)sc2c1`, the EC50 is 0.855 µM (active) in assay [14], 1.24 µM (active) in [15] and 1.8 µM (active) in [16].
On to `CCOc1ccc(S(=O)(=O)N2CCCCCC2)c2ccccc12`, for which the EC50 was > 29.9 µM (not active) in assay [17], 0.95 µM (active) in assay [18], 1.03 µM (active) in assay [19] and > 29.9 µM (not active) in assay [20].
For the compound `O=C1Nc2ccc(F)cc2/C1=C1/Nc2ccccc2/C1=N\O`, the IC50 in assay [21] was 0.38 µM (not active).
In the case of `CCC(=O)Nc1cccc(NC(=O)c2ccccc2Cl)c1`, the EC50 in assay [22] was > 112 µM (not active); in assay [23] it was 3.42 µM (active); in assay [24], < 30 µM (active).
Consider `CC(=O)c1sc(Nc2ccccn2)nc1C`, for which, in [25], the IC50 is 40.3 µM (not active). In addition, the EC50 in assay [26] was > 79.4 µM (inactive); in assay [27], > 79.4 µM (not active); in assay [28] it was > 79.4 µM (not active).
